ChEMBL document CHEMBL5523727, “Discovery of KT-413, a Targeted Protein Degrader of IRAK4 and IMiD Substrates Targeting MYD88 Mutant Diffuse Large B-Cell Lymphoma” (J Med Chem, 2024)

Assays:
[1] = Volume of distribution at steady state in rat at 2 mg/kg, iv by LC-MS/MS analysis; format: ADME, organism-based; settings: in vivo, read-out: Vdss
OCI-Ly10 = test: Antiproliferative activity against human OCI-Ly10 cells measured after 4 days by CellTiter-Glo Luminescent Cell Viability Assay; format: functional, cell-based; settings: Homo sapiens, OCI-Ly10, 96 h
[2] = Metabolic stability in rat liver microsomes assessed as intrinsic clearance at 1 uM measured upto 60 mins in presence of NADPH by UPLC/MS-MS analysis; format: ADME, Microsome; settings: read-out: CLH
[3] = Clearance in rat at 2 mg/kg, iv by LC-MS/MS analysis; format: ADME, organism-based; settings: in vivo
[4] = Passive permeability of the compound in wild type MDCK cells across apical to basolateral side at 1 uM measured for 120 mins by LC-MS/MS analysis; format: ADME, cell-based, Canis lupus familiaris; settings: dog, read-out: permeability
[5] = Oral bioavailability in rat at 3 mg/kg by LC-MS/MS analysis; format: ADME, organism-based; settings: in vivo
[6] = target: T1, Protein cereblon/Interleukin-1 receptor-associated kinase 4 (Homo sapiens, UniProt Q9NWZ3+Q96SW2); test: PROTAC activity at CRBN/IRAK4 in human OCI-Ly10 cells assessed as induction of IRAK4 degradation measured after 24 hrs by MSD assay relative to control; format: cell-based
Target sequence in this assay (Q96SW2 whole entry, looked up): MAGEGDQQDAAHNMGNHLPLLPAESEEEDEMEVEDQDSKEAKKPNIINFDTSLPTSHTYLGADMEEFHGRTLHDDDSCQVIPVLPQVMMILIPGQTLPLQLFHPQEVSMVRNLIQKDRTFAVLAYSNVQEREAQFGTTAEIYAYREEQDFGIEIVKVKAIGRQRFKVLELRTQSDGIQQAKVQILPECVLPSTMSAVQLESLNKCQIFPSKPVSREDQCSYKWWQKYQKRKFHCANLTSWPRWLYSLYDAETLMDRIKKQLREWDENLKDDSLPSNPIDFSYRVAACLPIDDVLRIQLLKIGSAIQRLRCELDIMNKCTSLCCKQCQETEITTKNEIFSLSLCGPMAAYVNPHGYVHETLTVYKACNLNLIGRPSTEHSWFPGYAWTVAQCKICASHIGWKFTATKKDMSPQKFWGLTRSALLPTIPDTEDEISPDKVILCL
Target sequence in this assay (Q9NWZ3 whole entry, looked up): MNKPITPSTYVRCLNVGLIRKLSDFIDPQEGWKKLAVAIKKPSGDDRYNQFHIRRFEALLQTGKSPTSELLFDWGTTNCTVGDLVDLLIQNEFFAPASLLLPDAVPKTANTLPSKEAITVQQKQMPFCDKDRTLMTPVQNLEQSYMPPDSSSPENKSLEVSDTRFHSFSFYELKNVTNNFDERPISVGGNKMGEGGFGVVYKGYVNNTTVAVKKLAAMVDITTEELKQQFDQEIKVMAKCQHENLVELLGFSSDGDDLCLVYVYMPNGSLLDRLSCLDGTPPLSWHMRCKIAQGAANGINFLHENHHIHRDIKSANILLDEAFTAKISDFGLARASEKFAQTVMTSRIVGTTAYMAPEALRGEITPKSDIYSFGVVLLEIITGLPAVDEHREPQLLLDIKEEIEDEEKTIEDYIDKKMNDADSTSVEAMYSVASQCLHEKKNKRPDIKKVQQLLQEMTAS

[7] = target: T1, Protein cereblon/Interleukin-1 receptor-associated kinase 4; test: PROTAC activity at CRBN/IRAK4 in human OCI-Ly10 cells assessed as induction of IRAK4 degradation measured after 24 hrs by MSD assay; format: cell-based
Target sequence in this assay (Q9NWZ3 whole entry): as the sequence (Q9NWZ3 whole entry, looked up) above
Target sequence in this assay (Q96SW2 whole entry): as the sequence (Q96SW2 whole entry, looked up) above

[8] = AUC in rat at 3 mg/kg, po by LC-MS/MS analysis; format: ADME, organism-based; settings: in vivo
[9] = Metabolic stability in human liver microsomes assessed as intrinsic clearance at 1 uM measured upto 60 mins in presence of NADPH by UPLC/MS-MS analysis; format: ADME, Microsome; settings: read-out: CLH
[10] = Half life in rat at 2 mg/kg, iv by LC-MS/MS analysis; format: ADME, organism-based; settings: in vivo
Cereblon/Ikaros = Cereblon/Ikaros (Homo sapiens, UniProt Q96SW2+Q13422); test: PROTAC activity at CRBN/Ikaros in human OCI-Ly10 cells assessed as induction of Ikaros degradation measured after 24 hrs by MSD assay; format: cell-based
Cereblon/Ikaros, sequence (Q96SW2 whole entry): as the sequence (Q96SW2 whole entry, looked up) above
Cereblon/Ikaros, sequence (Q13422 whole entry): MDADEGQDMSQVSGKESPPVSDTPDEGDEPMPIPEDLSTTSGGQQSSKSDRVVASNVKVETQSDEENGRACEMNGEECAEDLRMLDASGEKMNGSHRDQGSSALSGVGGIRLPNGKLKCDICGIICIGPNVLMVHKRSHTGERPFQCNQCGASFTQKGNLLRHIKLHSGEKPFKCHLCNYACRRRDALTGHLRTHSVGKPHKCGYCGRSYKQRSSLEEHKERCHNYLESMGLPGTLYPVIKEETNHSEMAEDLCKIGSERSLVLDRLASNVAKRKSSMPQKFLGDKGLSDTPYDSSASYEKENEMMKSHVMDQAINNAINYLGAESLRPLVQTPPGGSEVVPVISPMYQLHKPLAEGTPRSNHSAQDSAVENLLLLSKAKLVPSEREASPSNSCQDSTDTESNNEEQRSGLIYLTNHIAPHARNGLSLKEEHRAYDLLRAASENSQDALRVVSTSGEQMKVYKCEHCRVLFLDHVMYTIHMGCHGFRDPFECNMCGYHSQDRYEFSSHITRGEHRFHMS

[11] = Half life in Non human primate plasma; format: ADME, cell-free; settings: primates
[12] = Half life in human plasma; format: ADME, cell-free
Protein cereblon = Protein cereblon (Homo sapiens, UniProt Q96SW2); test: Binding affinity to CRBN (unknown origin) by HTRF assay
Protein cereblon, sequence (Q96SW2 whole entry): as the sequence (Q96SW2 whole entry, looked up) above

[13] = Drug exposure in rat administered as iv bolus dose; format: ADME, organism-based; settings: in vivo
[14] = Half life in dog plasma; format: ADME, cell-free, Canis lupus familiaris
[15] = Drug exposure in Non human primate administered as iv dose; format: ADME, organism-based; settings: primates, in vivo
[16] = Half life in rat plasma; format: ADME, cell-free

Structure (SMILES) | Vd [1] [L/kg] | IC50 (OCI-Ly10) [nM] | microsomal CLint at 1 µM [2] [µL/min/mg] | clearance [3] [mL/min/kg] | Papp A→B at 2 h, 1 µM [4] [×10⁻⁶ cm/s] | bioavailability [5] [%] | Emax [6] [%] | DC50 [7] [nM] | AUC [8] [µM·h] | microsomal CLint at 1 µM [9] [µL/min/mg] | half-life [10] [h] | DC50 (Cereblon/Ikaros) [nM] | half-life [11] [h] | half-life [12] [h] | IC50 (Protein cereblon) [nM] | Drug uptake [13] [%] | half-life [14] [h] | Drug uptake [15] [%] | half-life [16] [h]
COc1cc2nc([C@H]3CC[C@H](CN4CC5(CC(CCNc6cccc7c6C(=O)N(C6CCC(=O)NC6=O)C7=O)C5)C4)CC3)oc2cc1NC(=O)c1cccc(C(F)(F)F)n1 (stereo partly specified) | 9.6 | 53 | 2.9 | 9.4 | 0.34 | 10 | 68 | 190 | 0.5 | 3.9 | 12 | 6 | – | – | – | – | – | – | –
CC(C)(O)c1cc2nc([C@H]3CC[C@H](CN4CC5(CC(CCNc6cccc7c6C(=O)N([C@H]6CCC(=O)NC6=O)C7=O)C5)C4)CC3)sc2cc1NC(=O)c1cccc(C(F)(F)F)n1 | – | – | – | – | – | – | – | 6.3 | – | – | – | 2 | 3.35 | 4.03 | 3 | 57 | 2.58 | 52 | 2.15
